What was measured:
Assay in all cases: 3H-TdR incorporation at 72 hr (24 hr drug exposure, wash, 48 hr)
[1] = test system: SF-268; assay type: cell-based, Human; conditions: Homo sapiens, SF-268, read-out: IC50 in μM (3H-TdR incorporation at 72 hr) SF-268 24 h, SF-268 Human Central Nervous System Tumor; 24 h drug exposure, 72 hr assay
Procedure: (§1) Exposition of 24 hr to drug, wash, incubated for another 48 hr (total of 72 hr assay)
(§2) (3H-Thymidine Incorporation Assay)

[2] = test system: H-460; assay type: cell-based, Human; conditions: Homo sapiens, NCI-H460, read-out: IC50 in μM (3H-TdR incorporation at 72 hr) H-460 24 h, H-460 Human Lung Carcinoma, 72 hr assay
Procedure: as §1, §2

[3] = test system: MCF-7; assay type: cell-based, Human; conditions: Homo sapiens, MCF7, read-out: IC50 in μM (3H-TdR incorporation at 72 hr) MCF-7 24 h, MCF-7 Human Breast Carcinoma, 72 hr assay
Procedure: as §1, §2

[4] = test system: CEM/dCK-; assay type: cell-based; conditions: for IC50: Homo sapiens, CCRF-CEM, read-out: IC50 in μM (3H-TdR incorporation at 72 hr) CEM/dCK- 24 h, CCRF-CEM deoxycytidine kinase-deficient, 24 h drug exposure, 72 hr assay; for Factor* (Resistance Factor = Ratio of dCK- on Wild-type CCRF-CEM): ratio of IC50 CEM/dCK- to IC50 CCRF-CEM
Procedure: as §1, §2

[5] = test system: CCRF-CEM; assay type: cell-based; conditions: Homo sapiens, CCRF-CEM, read-out: IC50 in μM (3H-TdR incorporation at 72 hr) CCRF-CEM 24 h, CCRF-CEM T-cell Leukemia, 72 hr assay
Procedure: as §1, §2

| Structure (SMILES) | IC50 [1] [µM] | IC50 [2] [µM] | IC50 [3] [µM] | IC50 [4] [µM] | Factor* (Resistance Factor = Ratio of dCK- on Wild-type CCRF-CEM) [4] | IC50 [5] [µM] |
| --- | --- | --- | --- | --- | --- | --- |
| CN(C)/C=N/c1ccn([C@@H]2CO[C@H](CO)O2)c(=O)n1 (stereo in doubt) [Compound 222, N′-[1-(2-HYDROXYMETHYL- [1,3]DIOXOLAN-4-YL)-2- OXO-1,2-DIHYDRO- PYRIMIDIN-4-YL]-N,N- DIMETHYL-FORMAMIDINE] | 0.85 | 0.21 | 0.19 | > 100 | >909 | 0.11 |
| CC(C)C[C@H](NC(=O)OCc1ccccc1)C(=O)Nc1ccn([C@@H]2CO[C@H](CO)O2)c(=O)n1 [Compound 254, {1-[1-(2-HYDROXYMETHYL- [1,3]DIOXOLAN-4-YL)-2- OXO-1,2-DIHYDRO- PYRIMIDIN-4-YL CARBAMOYL]-3-METHYL- BUTYL}-CARBAMIC ACID BENZYL ESTER] | 0.29 | 0.17 | 0.18 | 31 | 316 | 0.098 |
| CC(C)(C)OC(=O)NCCCCCC(=O)Nc1ccn([C@@H]2CO[C@H](CO)O2)c(=O)n1 [Compound 193, {5-[1-(2-HYDROXYMETHYL- [1,3]DIOXOLAN-4-YL)-2- OXO-1,2-DIHYDRO- PYRIMIDIN-4- YLCARBAMOYL]-PENTYL}- CARBAMIC ACID TERT- BUTYL ESTER] | 2 | 0.64 | 0.16 | > 100 | >1695 | 0.059 |
| CC(C)(C)C(CCCCCCc1ccccc1)C(=O)OC[C@H]1OC[C@@H](n2ccc(N)nc2=O)O1 (stereo partly shown) [Compound 256, 2-tert-Butyl-8-phenyl-octanoic acid 4-(4-amino-2-oxo-2H-pyrimidin-1-yl)-[1,3]dioxolan-2-yl methyl ester] | 14 | 4.6 | 5.1 | 20 | 4 | 5.3 |
| CC(C)(C)OC(=O)NCCCCCC(=O)OC[C@H]1OC[C@@H](n2ccc(N)nc2=O)O1 [Compound 194, 6-TERT!- BUTOXYCARBONYLAMINO- HEXANOIC ACID 4-(4- AMINO-2-OXO-2H- PYRIMIDIN-1-YL)- [1,3]DIOXOLAN-2- YLMETHYL ESTER] | 0.041 | 0.011 | 0.004 | 10 | 4167 | 0.0024 |
| CC(CCCCCCc1ccccc1)C(=O)OC[C@H]1OC[C@@H](n2ccc(N)nc2=O)O1 (stereo partly shown) [Compound 245, 2-METHYL-8-PHENYL- OCTANOIC ACID 4-(4- AMINO-2-OXO-2H- PYRIMIDIN-1-YL)- [1,3]DIOXOLAN-2-YL METHYL ESTER] | < 0.0001 | < 0.0001 | < 0.0001 | 0.68 | >6800 | < 0.0001 |
| Nc1ccn([C@@H]2CO[C@H](COC(=O)c3ccccc3Cc3ccccc3)O2)c(=O)n1 [Compound 220, BIPHENYL-2-CARBOXYLIC ACID 4-(4-AMINO-2-OXO- 2H-PYRIMIDIN-1-YL)- [1,3]DIOXOLAN-2-YL METHYL ESTER] | 0.042 | 0.0034 | 0.029 | > 100 | >28571 | 0.0035 |
| O=C(Nc1ccn([C@@H]2CO[C@H](CO)O2)c(=O)n1)OCc1ccc([N+](=O)[O-])cc1 [Compound 182, [1-(2-HYDROXYMETHYL- [1,3]DIOXOLAN-4-YL)-2- OXO-1,2-DIHYDRO- PYRIMIDIN-4-YL]- CARBAMIC ACID 4-NITRO- BENZYL ESTER] | 0.21 | 0.13 | 0.22 | > 100 | >2100 | 0.047 |
| CCCCCc1ccc(OC(=O)Nc2ccn([C@@H]3CO[C@H](CO)O3)c(=O)n2)cc1 [Compound 250, [1-(2-HYDROXYMETHYL- [1,3]DIOXOLAN-4-YL)-2- OXO-1,2-DIHYDRO- […]-4-YL]- CARBAMIC ACID 4-PENTYL- PHENYL ESTER] | 0.17 | 0.17 | 0.16 | 31 | 492 | 0.063 |
| CN(C)CCCOC(=O)OC[C@H]1OC[C@@H](n2ccc(N)nc2=O)O1.O=C(O)C(F)(F)F [Compound 164, CARBONIC ACID 4-(4- AMINO-2-OXO-2H- PYRIMIDIN-1-YL)- [1,3]DIOXOLAN-2- YLMETHYL ESTER 3- DIMETHYLAMINO-PROPYL ESTER TRIFLUORO-ACETIC ACID SALT] | 0.28 | 0.13 | 0.14 | > 100 | 1667 | 0.06 |
| C#CCN(CC#C)c1ccn([C@@H]2CO[C@H](CO)O2)c(=O)n1 [Compound 171, (S,S) 4-(DI-PROP-2′- YNYL-AMINO)-1-(2″- HYDROXYMETHYL- [1,3]DIOXOLAN-4″-YL)- 1H-PYRIMIDIN-2-ONE] | 82 | 45 | 41 | > 100 | >2.6 | 38 |
| COc1ccc(C(OC)(OC)OC[C@H]2OC[C@@H](n3ccc(N)nc3=O)O2)cc1 [Compound 195, 4-AMINO-1-{2- [DIMETHOXY-(4-METHOXY- PHENYL)-METHOXYMETHYL]- [1,3]DIOXOLAN-4-YL}- 1#H!-PYRIMIDIN-2-ONE] | 1.5 | 1.1 | 1.9 | > 100 | >1563 | 0.064 |
| COc1ccc(C(=O)Nc2ccn([C@@H]3CO[C@H](CO)O3)c(=O)n2)cc1 [Compound 175, N-[1-(2-HYDROXYMETHYL- [1,3]DIOXOLAN-4-YL)-2- OXO-1,2-DIHYDRO- PYRIMIDIN-4-YL]-4- METHOXY-BENZAMIDE] | 32 | 6.3 | 3.1 | > 100 | >29 | 3.5 |
| CC(C)Cc1ccc([C@H](C)C(=O)Nc2ccn([C@@H]3CO[C@H](CO)O3)c(=O)n2)cc1 [Compound 242, N-[1-(2-HYDROXYMETHYL- [1,3]DIOXOLAN-4-YL)-2- OXO-1,2-DIHYDRO- PYRIMIDIN-4-YL]-2-(4- ISOBUTYL-PHENYL)- PROPIONAMIDE] | 1.1 | 0.25 | 0.001 | 93 | 404 | 0.23 |
| CN(C)CCCCOC(=O)Nc1ccn([C@@H]2CO[C@H](CO)O2)c(=O)n1.O=C(O)C(F)(F)F [Compound 169, [1-(2-HYDROXYMETHYL- [1,3]DIOXOLAN-4-YL)-2- OXO-1,2-DIHYDRO- PYRIMIDIN-4-YL]- CARBAMIC ACID 4- DIMETHYLAMINO-BUTYL ESTER TRIFLUOROACETIC ACID SALT] | 7.1 | 8.2 | 5.1 | > 100 | >50 | 2 |
| CCCCN(/C=N/c1ccn([C@@H]2CO[C@H](CO)O2)c(=O)n1)CCCC (stereo in doubt) [Compound 221, N,N-Dibutyl-N′-[1-(2-hydroxymethyl [1,3]dioxolan-4-yl)-2-oxo-1,2-dihydro-pyrimidin-4-yl]-formamidine] | 1.6 | 0.43 | 0.39 | > 100 | >769 | 0.13 |
| O=C(CCCCCCCc1ccccc1)Nc1ccn([C@@H]2CO[C@H](CO)O2)c(=O)n1 [Compound 197, 8-PHENYL-OCTANOIC ACID [1-(2-HYDROXYMETHYL- [1,3]DIOXOLAN-4-YL)-2- OXO-1,2-DIHYDRO- PYRIMIDIN-4-YL]-AMIDE] | < 0.0001 | < 0.0001 | < 0.0001 |  |  | < 0.0001 |
